Common to all, as to type: biochemical
Assay [1] has as its target PLAP (Homo sapiens, UniProt P05187). The experiment in a line: PLAP luminescent assay. The conditions noted are these: for IC50: PLAP potency (IC50), mean ± SD of three experiments, CDP-star 85 μM.
The target of assay [2] is T1, IAP (Homo sapiens, UniProt P09923).
T1 sequence (P09923 20-503 limits assumed): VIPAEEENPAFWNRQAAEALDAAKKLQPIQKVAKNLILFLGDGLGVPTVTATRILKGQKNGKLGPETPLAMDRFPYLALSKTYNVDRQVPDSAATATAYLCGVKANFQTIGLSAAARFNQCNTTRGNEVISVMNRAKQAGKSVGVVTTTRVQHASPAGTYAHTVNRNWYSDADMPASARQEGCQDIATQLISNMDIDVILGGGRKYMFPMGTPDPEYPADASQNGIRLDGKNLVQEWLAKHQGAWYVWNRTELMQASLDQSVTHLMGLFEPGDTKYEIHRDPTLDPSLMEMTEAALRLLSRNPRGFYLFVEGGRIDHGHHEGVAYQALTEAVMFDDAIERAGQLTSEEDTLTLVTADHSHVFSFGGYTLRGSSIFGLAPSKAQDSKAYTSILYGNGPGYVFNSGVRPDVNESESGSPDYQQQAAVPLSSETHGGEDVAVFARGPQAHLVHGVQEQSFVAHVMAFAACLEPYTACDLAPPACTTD
The experiment in a line: IAP luminescent assay. The conditions noted are these: ratio IC50 IAP / IC50 PLAP.

The target in assay [3] is GCAP (Homo sapiens, UniProt P10696). The experiment in a line: GCAP luminescent assay. The conditions noted are these: ratio IC50 GCAP / IC50 PLAP; for 12, 13, 20 from the separate-occasion values.
In assay [4] the target is T2, TNAP (Homo sapiens, UniProt P05186).
T2 sequence (P05186 18-502 limits assumed): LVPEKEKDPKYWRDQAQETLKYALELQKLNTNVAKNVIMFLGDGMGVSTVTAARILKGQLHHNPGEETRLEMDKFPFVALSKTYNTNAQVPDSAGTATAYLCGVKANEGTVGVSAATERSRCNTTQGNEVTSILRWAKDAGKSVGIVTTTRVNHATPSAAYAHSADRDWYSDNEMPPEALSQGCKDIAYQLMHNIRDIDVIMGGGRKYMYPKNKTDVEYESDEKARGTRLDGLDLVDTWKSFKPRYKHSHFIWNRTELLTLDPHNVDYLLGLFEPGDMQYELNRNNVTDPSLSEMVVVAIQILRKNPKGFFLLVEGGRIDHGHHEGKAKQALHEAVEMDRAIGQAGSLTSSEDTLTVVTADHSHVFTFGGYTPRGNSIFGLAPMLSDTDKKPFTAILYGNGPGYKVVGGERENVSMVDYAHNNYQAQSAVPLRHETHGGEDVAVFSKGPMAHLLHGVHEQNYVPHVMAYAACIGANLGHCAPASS
The experiment in a line: TNAP luminescent assay. Conditions: ratio IC50 TNAP / IC50 PLAP.

Each structure is given as a SMILES string.

16 molecules from article PMC2818863 (Bioorganic & medicinal chemistry, 2009) can be followed below.

The term IC50 denotes the midpoint of a concentration-inhibition curve. Read a high IC50 as weaker potency in that assay.

Sequence of PLAP (P05187 23-506 limits assumed): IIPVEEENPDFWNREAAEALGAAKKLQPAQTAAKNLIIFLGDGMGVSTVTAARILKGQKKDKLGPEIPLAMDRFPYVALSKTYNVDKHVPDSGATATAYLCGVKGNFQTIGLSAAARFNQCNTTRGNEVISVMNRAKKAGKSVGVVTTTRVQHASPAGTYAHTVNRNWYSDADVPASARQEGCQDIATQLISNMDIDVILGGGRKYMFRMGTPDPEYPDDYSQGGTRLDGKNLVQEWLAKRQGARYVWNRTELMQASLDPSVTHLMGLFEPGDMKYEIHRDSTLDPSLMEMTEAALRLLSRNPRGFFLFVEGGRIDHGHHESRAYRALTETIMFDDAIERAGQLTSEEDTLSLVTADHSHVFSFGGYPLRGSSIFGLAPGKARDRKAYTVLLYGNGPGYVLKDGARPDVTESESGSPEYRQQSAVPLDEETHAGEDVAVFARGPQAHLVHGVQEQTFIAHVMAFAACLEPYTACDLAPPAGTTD
Sequence of GCAP (P10696 20-503 limits assumed): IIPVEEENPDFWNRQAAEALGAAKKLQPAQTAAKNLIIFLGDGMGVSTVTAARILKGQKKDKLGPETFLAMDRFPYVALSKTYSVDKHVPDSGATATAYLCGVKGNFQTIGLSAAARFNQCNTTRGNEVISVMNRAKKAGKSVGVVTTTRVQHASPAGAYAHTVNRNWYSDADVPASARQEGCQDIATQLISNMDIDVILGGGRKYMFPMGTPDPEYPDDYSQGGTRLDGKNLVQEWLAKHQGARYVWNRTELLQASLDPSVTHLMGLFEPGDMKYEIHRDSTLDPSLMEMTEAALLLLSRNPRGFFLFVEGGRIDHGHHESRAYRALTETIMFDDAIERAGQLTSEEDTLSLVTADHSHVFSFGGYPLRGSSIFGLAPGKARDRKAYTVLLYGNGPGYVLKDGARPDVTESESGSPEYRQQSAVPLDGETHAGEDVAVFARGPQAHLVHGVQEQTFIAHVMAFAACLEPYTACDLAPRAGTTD

As for `Cc1cc(C)nc(SCC(=O)c2ccc(O)cc2)n1` [Compound 3], in assay [1], the IC50 was more than 100 µM and the “PLAP inhibitory potency at 100 μM” value is recorded as “no PLAP inhibitory potency”. For the molecule `Cc1cc(C)nc(SCC(=O)c2cccc(O)c2)n1` [Compound 4], in assay [1], the IC50 is more than 100 µM and the “PLAP inhibitory potency at 100 μM” value is on record as “no PLAP inhibitory potency”. Turning to `COc1cc(C(=O)CSc2nc(C)cc(C)n2)ccc1O` [Compound 5], in assay [1], the IC50 was more than 100 µM and the “PLAP inhibitory potency at 100 μM” value was “no PLAP inhibitory potency”. The matching figures for `Cc1cc(C)nc(SCC(=O)c2ccc3c(c2)OCO3)n1` [Compound 6]: more than 100 µM and “no PLAP inhibitory potency”. Consider `COc1ccc(C(=O)CSc2nc(C)cc(C)n2)cc1` [Compound 7], for which, in assay [1], the IC50 is more than 100 µM and the “PLAP inhibitory potency at 100 μM” value was “no PLAP inhibitory potency”. In the case of `O=C(Cn1ccnc1)c1ccc(O)c(O)c1` [Compound 8], the IC50 in assay [1] was approximately 3 µM.

`Cc1cnn(CC(=O)c2ccc(O)c(O)c2)c1` [Compound 10]: the IC50 in assay [1] worked out at 2.7 ± 0.1 µM. Further, in assay [2], the “Selectivity (IAP/PLAP)” value is on record as more than 25 fold. Turning to `Cc1nccn1CC(=O)c1ccc(O)c(O)c1` [Compound 12], the IC50 in assay [1] is 3.3 ± 0.2 µM. In the case of `CCc1nccn1CC(=O)c1ccc(O)c(O)c1` [Compound 13], the half-inhibitory concentration (IC50) in assay [1] is approximately 3 µM. For the same molecule, the “Selectivity (GCAP/PLAP)” value in assay [3] is “^* (2.1)”. In the case of `Cc1cc2ncn(CC(=O)c3ccc(O)c(O)c3)c2cc1C` [Compound 18], the “Selectivity (TNAP/PLAP)” value in assay [4] is listed as more than 17 fold. With `Cc1nc(Br)cn1CC(=O)c1ccc(O)c(O)c1` [Compound 19], the “increase in PLAP inhibitory potency” value in assay [1] (19 relative to 16) worked out at 3 fold. The IC50 in assay [1] was determined as 4.9 ± 0.6 µM.

For the molecule `Cc1cc(C(=O)NCc2ccc(O)c(O)c2)oc1C` [Compound 25], the IC50 in assay [1] is more than 100 µM. `Cc1cc(C(=O)NCCc2ccc(O)c(O)c2)oc1C` [Compound 26] gave an IC50 in assay [1] of more than 100 µM. Still for that read-out and setting: under `O=C(CSc1nnc(-c2ccccc2)[nH]1)c1ccc(O)c(O)c1` [Compound 28] stands more than 100 µM.

Regarding `Cn1c(SCC(=O)c2ccccc2)nnc1-c1cccc(N)c1` [Compound 29], the IC50 in assay [1] is more than 100 µM.

As to `COc1ccc(-n2nnnc2SCC(=O)c2ccc(O)c(O)c2)cc1` [Compound 32], the IC50 in assay [1] was found to be 2 ± 0.1 µM.
